For 13 molecules, IC50 and DC50 results are on record in US12521440B2, “Degradation of bruton's tyrosine kinase (BTK) by conjugation of BTK inhibitors with E3 ligase ligand and methods of use” (BeOne Medicines I GmbH, priority 2021, dated 2026).

By DC50 is commonly meant the midpoint of the concentration-degradation curve. Higher therefore signals a less potent degrader.

Where only a bound is given, the exact number is not on record here.

One assay has as its system HEK-293 cells. The assay is described as follows: HEK-293 cytotoxicity detection (CellTiter-Glo). The settings on record: Homo sapiens, 72 h incubation, read-out: HEK293. It counts as cell-based.
Excerpt: (§1) The IC50 (DC50) value of a compound can be obtained by fitting the following equation Y=Bottom+(TOP−Bottom)/(1+((IC50/X)^hillslope)) wherein, X and Y are known values, and IC50, Hillslope, Top and Bottom are the parameters obtained by fitting with software. Y is the inhibition percentage (calculated from the equation), X is the concentration of the compound; IC50 is the concentration of the compound when the 50% inhibition is reached. The smaller the IC50 value is, the stronger the inhibitory ability of the compound is. Vice versa, the higher the IC50 value is, the weaker the ability the inhibitory ability of the compound is; Hillslope represents the slope of the fitted curve, generally around 1*; Bottom represents the minimum value of the curve obtained by data fitting, which is generally 0%±20%; Top represents the maximum value of the curve obtained by data fitting, which is generally 100%±20%. The experimental data were fitted by calculating and analyzing with Dotmatics data analysis software. HEK-293 Cell Treatment
HEK-293 cells were treated with compounds diluted in 0.2% DMSO, dilution was done according to the following protocol: (1) making 500×stock solution in DMSO from 5 mM by 4-fold dilution, total 8 doses were included; (2) making 2×solution in cell culture medium by transferring 0.5 ul 500×stock solution into 125 ul medium; (3) adding 50 ul of 2×solution to cells for incubation of 72 h.
25 μl of the CellTiter-Glo® Reagent [(Promega)—Cat No. G7572] was added to each well in the 96-well plate. The contents were mixed for 2 minutes on an orbital shaker to induce cell lysis. The plate was then allowed to incubate at room temperature for 10 minutes to stabilize luminescent signal. Luminescence was recorded on BMG PheraStar with luminescence protocol.
as §1, with “IC50” for “IC50 (DC50)”, “Wherein,” for “wherein,”, “software.” for “software. HEK-293 Cell Treatment”
(In general: Cellular ATP, detected with luciferase, serves as a proxy for viable cell number.)

In the next assay the target is T1, BTK (Homo sapiens, UniProt Q06187).
T1 construct: endogenous in cells; host or cells: TMD-8 cells
Briefly: BTK degradation in TMD-8 cells (HTRF assay). It counts as cell-based. The following applies: 6 h treatment, HTRF BTK degradation IC50 (DC50). The protocol: TMD-8 cells were treated with compounds diluted in 0.2% DMSO, dilution was done according to the following protocol: (1) making 500×stock solution in DMSO from 1 mM by 6-fold dilution, total 8 doses were included; (2) making 2×solution in cell culture medium by transferring 0.5 μl 500×stock solution into 125 μl medium; (3) adding 15 μl of 2×solution to cells for incubation of 6 h.
After 6 h treatment, 10 μl 4×lysis buffer was added to each well; the plate was sealed and incubated for 30 min at room temperature on a plate shaker; Once the cells was lysed, 16 μL of cell lysate were transferred to a PE 384-well HTRF detection plate; 4 μL of pre-mixed HTRF antibodies were added to each well; the plate was covered with a plate sealer, and then spinned at 1000 rpm for 1 min, then incubated overnight at room temperature; the results were read on BMG PheraStar with HTRF protocol (337 nm-665 nm-620 nm).
as §1

T1 sequence (Q06187 whole entry): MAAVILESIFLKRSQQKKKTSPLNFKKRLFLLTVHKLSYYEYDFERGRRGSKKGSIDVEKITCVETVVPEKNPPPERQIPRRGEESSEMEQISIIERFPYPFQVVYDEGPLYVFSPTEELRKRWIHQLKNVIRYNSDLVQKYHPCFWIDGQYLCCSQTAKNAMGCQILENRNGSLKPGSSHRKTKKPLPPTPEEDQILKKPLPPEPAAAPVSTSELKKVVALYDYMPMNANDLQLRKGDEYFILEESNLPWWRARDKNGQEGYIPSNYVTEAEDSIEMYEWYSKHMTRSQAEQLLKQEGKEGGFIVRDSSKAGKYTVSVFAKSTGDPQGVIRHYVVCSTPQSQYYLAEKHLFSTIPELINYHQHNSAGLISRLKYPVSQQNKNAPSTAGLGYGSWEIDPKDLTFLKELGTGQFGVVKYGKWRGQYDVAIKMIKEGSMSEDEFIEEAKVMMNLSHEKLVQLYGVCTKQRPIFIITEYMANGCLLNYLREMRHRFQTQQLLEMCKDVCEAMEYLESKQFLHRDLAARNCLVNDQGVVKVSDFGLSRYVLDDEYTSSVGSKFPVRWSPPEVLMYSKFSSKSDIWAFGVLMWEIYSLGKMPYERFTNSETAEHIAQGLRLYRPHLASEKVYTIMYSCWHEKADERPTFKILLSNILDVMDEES

In the case of `Cc1cc(-c2cc(Nc3ccc(N4CCN(CC5CCN(c6ccc(N7CCC(=O)NC7=O)cc6)CC5)CC4)cc3)ncn2)c(F)cc1[C@@H](C)NC(=O)c1nc(C(C)(C)C)no1` [Example 1, (R)-3-(tert-butyl)-N-(1-(4-(6-((4-(4-((1-(4-(2,4-dioxotetrahydropyrimidin-1(2H)-yl)phenyl)piperidin-4-yl)methyl)piperazin-1-yl)phenyl)amino)pyrimidin-4-yl)-5-fluoro-2-methylphenyl)ethyl)-1,2,4-oxadiazole-5-carboxamide], the IC50 in the assay with HEK-293 cells is above 10 µM. This molecule also gave a DC50 at BTK of 0.0213 µM.
The like results for `Cc1cc(-c2cc(Nc3ccc(N4CCN(CC5CCN(c6ccc(N7CCC(=O)NC7=O)c(F)c6)CC5)CC4)cc3)ncn2)c(F)cc1[C@@H](C)NC(=O)c1nc(C(C)(C)C)no1` [Example 2, (R)-3-(tert-butyl)-N-(1-(4-(6-((4-(4-((1-(4-(2,4-dioxotetrahydropyrimidin-1(2H)-yl)-3-fluorophenyl)piperidin-4-yl)methyl)piperazin-1-yl)phenyl)amino)pyrimidin-4-yl)-5-fluoro-2-methylphenyl)ethyl)-1,2,4-oxadiazole-5-carboxamide] were, in that order, above 10 µM and 0.236 µM.
Take `Cc1cc(-c2cc(Nc3ccc(N4CCN(CC5CCN(c6ccc(N7CCC(=O)NC7=O)cc6F)CC5)CC4)cc3)ncn2)c(F)cc1[C@@H](C)NC(=O)c1nc(C(C)(C)C)no1` [Example 3, (R)-3-(tert-butyl)-N-(1-(4-(6-((4-(4-((1-(4-(2,4-dioxotetrahydropyrimidin-1(2H)-yl)-2-fluorophenyl)piperidin-4-yl)methyl)piperazin-1-yl)phenyl)amino)pyrimidin-4-yl)-5-fluoro-2-methylphenyl)ethyl)-1,2,4-oxadiazole-5-carboxamide]: the IC50 with HEK-293 cells was above 10 µM. In addition, the DC50 at BTK is 0.104 µM.
Turning to `Cc1cc(-c2cc(Nc3ccc(N4CCN(CCC5CCN(c6ccc(C7CCC(=O)NC7=O)c(F)c6)CC5)CC4)cc3)ncn2)c(F)cc1[C@@H](C)NC(=O)c1nc(C(C)(C)C)no1` (stereo partly drawn) [Example 4, 3-(tert-butyl)-N-((1R)-1-(4-(6-((4-(4-(2-(1-(4-(2,6-dioxopiperidin-3-yl)-3-fluorophenyl)piperidin-4-yl)ethyl)piperazin-1-yl)phenyl)amino)pyrimidin-4-yl)-5-fluoro-2-methylphenyl)ethyl)-1,2,4-oxadiazole-5-carboxamide], the IC50 with HEK-293 cells was above 10 µM. At BTK, this molecule showed a 50% degradation concentration (DC50) of 0.0169 µM.
For `Cc1cc(-c2cc(Nc3cccc(N4CCN(CC5CCN(c6ccc(N7CCC(=O)NC7=O)cc6)CC5)CC4)c3)ncn2)c(F)cc1[C@@H](C)NC(=O)c1nc(C(C)(C)C)no1` [Example 5, (R)-3-(tert-butyl)-N-(1-(4-(6-((3-(4-((1-(4-(2,4-dioxotetrahydropyrimidin-1(2H)-yl)phenyl)piperidin-4-yl)methyl)piperazin-1-yl)phenyl)amino)pyrimidin-4-yl)-5-fluoro-2-methylphenyl)ethyl)-1,2,4-oxadiazole-5-carboxamide], the IC50 with HEK-293 cells is above 10 µM.
Consider `Cc1cc(-c2cc(Nc3cccc(N4CCN(C5CC(c6ccc(NC7CCC(=O)NC7=O)cc6)C5)CC4)c3)ncn2)c(F)cc1[C@@H](C)NC(=O)c1nc(C(C)(C)C)no1` (stereo partly drawn) [Example 6, 3-(tert-butyl)-N-((1R)-1-(4-(6-((3-(4-(3-(4-((2,6-dioxopiperidin-3-yl)amino)phenyl)cyclobutyl)piperazin-1-yl)phenyl)amino)pyrimidin-4-yl)-5-fluoro-2-methylphenyl)ethyl)-1,2,4-oxadiazole-5-carboxamide], for which, in the assay with HEK-293 cells, the IC50 is above 10 µM. It took 0.0481 µM to reach half-maximal degradation at BTK (DC50).
For `Cc1cc(-c2cc(Nc3ccc(N4CCN(CC5CCN(c6ccc(N7CCC(=O)NC7=O)cc6)CC5)CC4)cc3)ncn2)ccc1[C@@H](C)NC(=O)c1nc(C(C)(C)C)no1` [Example 7, (R)-3-(tert-butyl)-N-(1-(4-(6-((4-(4-((1-(4-(2,4-dioxotetrahydropyrimidin-1(2H)-yl)phenyl)piperidin-4-yl)methyl)piperazin-1-yl)phenyl)amino)pyrimidin-4-yl)-2-methylphenyl)ethyl)-1,2,4-oxadiazole-5-carboxamide], the IC50 with HEK-293 cells was above 10 µM. The same molecule yielded a DC50 at BTK of 0.0128 µM.
`Cc1cc(-c2cc(Nc3ccc(N4CCN(CC5CCN(c6ccc(N7CCC(=O)NC7=O)cc6)CC5)CC4)cn3)ncn2)c(F)cc1[C@@H](C)NC(=O)c1nc(C(C)(C)C)no1` [Example 8, (R)-3-(tert-butyl)-N-(1-(4-(6-((5-(4-((1-(4-(2,4-dioxotetrahydropyrimidin-1(2H)-yl)phenyl)piperidin-4-yl)methyl)piperazin-1-yl)pyridin-2-yl)amino)pyrimidin-4-yl)-5-fluoro-2-methylphenyl)ethyl)-1,2,4-oxadiazole-5-carboxamide]: in the assay with HEK-293 cells, the IC50 is above 10 µM. In addition, the DC50 at BTK was determined as 0.00148 µM.
As for `Cc1c([C@@H](C)NC(=O)c2nc(C(C)(C)C)no2)ccc(-c2cc(Nc3ccc(N4CCN(CC5CCN(c6ccc(N7CCC(=O)NC7=O)cc6)CC5)CC4)cn3)ncn2)c1F` [Example 9, (R)-3-(tert-butyl)-N-(1-(4-(6-((5-(4-((1-(4-(2,4-dioxotetrahydropyrimidin-1(2H)-yl)phenyl)piperidin-4-yl)methyl)piperazin-1-yl)pyridin-2-yl)amino)pyrimidin-4-yl)-3-fluoro-2-methylphenyl)ethyl)-1,2,4-oxadiazole-5-carboxamide], the IC50 with HEK-293 cells was above 10 µM. Moreover, it took 0.138 µM to reach half-maximal degradation at BTK (DC50).
For `Cc1cc(-c2cc(Nc3ccc(N4CCN(CC5CCN(c6ccc(N7CCC(=O)NC7=O)cc6)CC5)CC4)nc3)ncn2)ccc1[C@@H](C)NC(=O)c1nc(C2(C)CC2)no1` [Example 10, (R)—N-(1-(4-(6-((6-(4-((1-(4-(2,4-dioxotetrahydropyrimidin-1(2H)-yl)phenyl)piperidin-4-yl)methyl)piperazin-1-yl)pyridin-3-yl)amino)pyrimidin-4-yl)-2-methylphenyl)ethyl)-3-(1-methylcyclopropyl)-1,2,4-oxadiazole-5-carboxamide], in the assay with HEK-293 cells, the IC50 is above 10 µM. On BTK, this molecule returned a 50% degradation concentration (DC50) of 0.0895 µM.
In the case of `Cc1cc(-c2cc(Nc3ccc(N4CCN(CC5CCN(c6ccc(N7CCC(=O)NC7=O)cc6)CC5)CC4)cn3)ncn2)ccc1[C@@H](C)NC(=O)c1nc(C2(C)CC2)no1` [Example 11, (R)—N-(1-(4-(6-((5-(4-((1-(4-(2,4-dioxotetrahydropyrimidin-1(2H)-yl)phenyl)piperidin-4-yl)methyl)piperazin-1-yl)pyridin-2-yl)amino)pyrimidin-4-yl)-2-methylphenyl)ethyl)-3-(1-methylcyclopropyl)-1,2,4-oxadiazole-5-carboxamide], the IC50 in the assay on HEK-293 cells is above 10 µM. The 50% degradation concentration (DC50) at BTK is 0.00121 µM.
The like results for `Cc1cc(-c2cc(Nc3ccc(N4CCN(C5CN(c6ccc(N7CCC(=O)NC7=O)cc6)C5)CC4)cn3)ncn2)ccc1[C@@H](C)NC(=O)c1nc(C2(C)CC2)no1` [Example 12, (R)—N-(1-(4-(6-((5-(4-(1-(4-(2,4-dioxotetrahydropyrimidin-1(2H)-yl)phenyl)azetidin-3-yl)piperazin-1-yl)pyridin-2-yl)amino)pyrimidin-4-yl)-2-methylphenyl)ethyl)-3-(1-methylcyclopropyl)-1,2,4-oxadiazole-5-carboxamide] were, in that order, above 10 µM and 0.00128 µM.
Consider `Cc1cc(-c2cc(Nc3ccc(N4CCN(CCc5cc(F)c([C@H]6CCC(=O)NC6=O)c(F)c5)CC4)cn3)ncn2)ccc1[C@@H](C)NC(=O)c1nc(C(C)(C)C)no1` [Example 46, 3-(tert-butyl)-N—((R)-1-(4-(6-((5-(4-(4-((R)-2,6-dioxopiperidin-3-yl)-3,5-difluorophenethyl)piperazin-1-yl)pyridin-2-yl)amino)pyrimidin-4-yl)-2-methylphenyl)ethyl)-1,2,4-oxadiazole-5-carboxamide], for which the IC50 in the assay on HEK-293 cells was above 10 µM.
